Experimental data: the NIST ThermoML archive (doi:10.1021/je050416y)

Test: xn = mol fraction of the nth substance listed
Conditions: 101 kPa, Liquid; for mass density: Vibrating tube method

CCC(C)CO (stereo unspecified) [2-methyl-1-butanol] + CCO
Conditions | kinematic viscosity, 308.15 K [m2/s] | kinematic viscosity, 313.15 K [m2/s] | kinematic viscosity, 318.15 K [m2/s] | kinematic viscosity, 323.15 K [m2/s] | mass density, 313.15 K [kg/m3] | mass density, 318.15 K [kg/m3] | mass density, 323.15 K [kg/m3]
x1 = 0.0268 | – | – | – | – | 773.7 | 769.4 | 765.1
x1 = 0.0549 | – | – | – | – | 775.2 | 771 | 766.7
x1 = 0.0845 | – | – | – | – | 776.7 | 772.5 | 768.3
x1 = 0.0915 | 1.2e-06 | 1.08e-06 | 9.8e-07 | 8.59e-07 | – | – | –
x1 = 0.1156 | – | – | – | – | 778.2 | 774.1 | 769.9
x1 = 0.1484 | – | – | – | – | 779.7 | 775.6 | 771.5
x1 = 0.1753 | 1.27e-06 | 1.14e-06 | 1.03e-06 | 8.96e-07 | – | – | –
x1 = 0.183 | – | – | – | – | 781.2 | 777.2 | 773.1
x1 = 0.2524 | 1.34e-06 | 1.2e-06 | 1.07e-06 | 9.37e-07 | – | – | –
x1 = 0.2584 | – | – | – | – | 784.2 | 780.3 | 776.3
x1 = 0.3235 | 1.42e-06 | 1.26e-06 | 1.13e-06 | 9.83e-07 | – | – | –
x1 = 0.3433 | – | – | – | – | 787.3 | 783.5 | 779.6
x1 = 0.3894 | 1.5e-06 | 1.33e-06 | 1.19e-06 | 1.04e-06 | – | – | –
x1 = 0.4395 | – | – | – | – | 790.5 | 786.8 | 782.9
x1 = 0.4505 | 1.6e-06 | 1.41e-06 | 1.25e-06 | 1.1e-06 | – | – | –
x1 = 0.5495 | – | – | – | – | 793.8 | 790.1 | 786.3
x1 = 0.5605 | 1.82e-06 | 1.6e-06 | 1.41e-06 | 1.23e-06 | – | – | –
x1 = 0.6567 | 2.07e-06 | 1.8e-06 | 1.59e-06 | 1.39e-06 | – | – | –
x1 = 0.6765 | – | – | – | – | 797 | 793.4 | 789.7
x1 = 0.7416 | 2.33e-06 | 2.03e-06 | 1.78e-06 | 1.56e-06 | – | – | –
x1 = 0.817 | 2.62e-06 | 2.28e-06 | 2e-06 | 1.75e-06 | – | – | –
x1 = 0.8247 | – | – | – | – | 800.3 | 796.7 | 793.2
x1 = 0.8844 | 2.97e-06 | 2.58e-06 | 2.26e-06 | 1.98e-06 | – | – | –
x1 = 0.9451 | 3.43e-06 | 2.97e-06 | 2.6e-06 | 2.28e-06 | – | – | –
x1 = 1 | 4.08e-06 | 3.54e-06 | 3.09e-06 | 2.72e-06 | 803.6 | 800.1 | 796.6
